Results reported in paper PMC10762035, “Molecular basis of human trace amine-associated receptor 1 activation” (Nature Communications, 2024).
Substitutions are numbered along the chain they refer to. Values joined by “and” are separate entries in the source; they are usually repeats but may differ in a detail not shown here. Equal values may be shown once. Read-outs that look alike come from different tables or passages of the source.

Key:
Type in all cases: cell-based
hTA1 T271A = molecular target: T1, hTA1 T271A (Homo sapiens, UniProt Q96RJ0, T271A); test: GloSensor cAMP accumulation assay, T271A mutant
T1 construct: expressed in transfected cells; host or cells: HEK293T
T1 sequence (Q96RJ0 1-339 T271A): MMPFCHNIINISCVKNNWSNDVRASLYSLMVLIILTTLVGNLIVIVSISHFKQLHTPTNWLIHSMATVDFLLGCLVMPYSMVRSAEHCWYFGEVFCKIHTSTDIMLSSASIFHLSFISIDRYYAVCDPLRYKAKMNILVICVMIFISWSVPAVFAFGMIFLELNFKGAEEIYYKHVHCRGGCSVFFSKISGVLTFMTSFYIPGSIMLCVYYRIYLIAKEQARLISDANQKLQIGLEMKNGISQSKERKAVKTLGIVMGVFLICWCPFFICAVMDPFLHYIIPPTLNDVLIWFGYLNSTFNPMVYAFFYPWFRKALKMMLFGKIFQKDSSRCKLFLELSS

hTA1 = molecular target: T2, hTA1 (Homo sapiens, UniProt Q96RJ0); test: GloSensor cAMP accumulation assay, concentration response, wild-type hTA1 in transfected HEK293T cells; details: for Emax: HEK-293T; for Dose-response curves for asenapine vs endogenous trace amines / Normalized Luminescence Counts for WT hTA1: log[Compound]; for Dose-response curves for asenapine vs endogenous trace amines: replicate values (N=2); for Normalized Luminescence Counts for WT hTA1: replicate wells;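 on all read-outs here: luminescence read after 30 min compound exposure at room temperature in cells preloaded with D-Luciferin, reflecting Gs-driven cAMP rise, efficacy scaled to the maximal β-PEA response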
T2 construct: expressed in transfected cells; host or cells: HEK293T
T2 sequence (Q96RJ0 1-339): T1 sequence (Q96RJ0 1-339 T271A) with A271T

hTA1 C88/178S = molecular target: T3, hTA1 C88/178S (Homo sapiens, UniProt Q96RJ0, C178S/C88S); test: GloSensor cAMP accumulation assay, C88S/C178S double mutant
T3 construct: expressed in transfected cells; host or cells: HEK293T
T3 sequence (Q96RJ0 1-339 C88S/C178S): T1 sequence (Q96RJ0 1-339 T271A) with C88S, C178S, A271T

hTA1 C88S = molecular target: T4, hTA1 C88S (Homo sapiens, UniProt Q96RJ0, C88S); test: GloSensor cAMP accumulation assay, C88S mutant; details: for Normalized Luminescence Counts: C88S (N=2), log[Agonist]
T4 construct: expressed in transfected cells; host or cells: HEK293T
T4 sequence (Q96RJ0 1-339 C88S): T1 sequence (Q96RJ0 1-339 T271A) with C88S, A271T

reduction in potency vs wild type (hTA1 T271A; T271A): roughly 4 fold
Emax values of Asenapine (hTA1 T271A; T271A, Mean of one experiment): 88.882
Emax (hTA1 T271A; T271A, Mean of one experiment, read-out: Emax values of Asenapine): 101%
EC50 (hTA1 T271A; T271A, Mean of one experiment, read-out: pEC50 values of Asenapine (converted)): 1300 nM and 1020 nM
EC50 (hTA1 T271A; T271A, n=2, read-out: EC50): 1150 nM
Emax (hTA1 T271A; T271A, n=2, read-out: Span ± SEM (Emax normalized to β-PEA)): 94.8 ± 5.91%
ΔEmax values (each mutant value - WT average), T271A, Mean (hTA1 T271A; hTA1 T271A mutant vs WT average, Figure 6B, each line is one experiment (3 replicates)): 11.9925 and 0.1748
Emax (hTA1; WT, Avg of the experiment means, read-out: Emax values, Avg): 88.7%
Emax (hTA1; WT, Mean of one experiment (3 replicates), read-out: Emax values): 91%
Emax (hTA1; wt hTA1, relative to β-PEA, read-out: Emax): 88.7%
Emax values, Avg (hTA1; WT, Asenapine, average of the two experiments): 88.71
Emax values, Mean (hTA1; WT, Asenapine, mean of one experiment, 3 replicates): 91.0389 and 86.3756
Emax values (hTA1; WT, Mean of one experiment (3 replicates)): 86.3756
EC50 (hTA1; WT, Mean of one experiment (3 replicates), read-out: pEC50 values (converted)): 279 nM
EC50 (hTA1; wt hTA1, HEK293T, n=3, read-out: EC50): 274 nM
EC50 (hTA1 C88/178S; C88/178S, n=2, read-out: EC50): 205 nM
Emax (hTA1 C88/178S; read-out: Span ± SEM (Emax normalized to β-PEA)): 86.3 ± 8.4%
ΔpEC50 values (each mutant value - WT average), Mean (hTA1 C88S; C88S, Asenapine): -0.4947 and -0.3839
Emax values, Mean (hTA1 C88S; C88S, Asenapine, per experiment, 3 replicates): 126.964 and 89.044
EC50 (hTA1 C88S; C88S, Asenapine, per experiment, 3 replicates, read-out: pEC50 values Mean (converted)): 270 nM and 210 nM
EC50 (hTA1 C88S; C88S, n=2, read-out: EC50): 238 nM
Emax (hTA1 C88S; C88S, relative to β-PEA, read-out: Emax): 108%
SMILES: CN1CC2c3ccccc3Oc3ccc(Cl)cc3C2C1 (stereo not shown) [asenapine]
Dose-response curves for asenapine vs endogenous trace amines (hTA1; M = -5): 79.6771 and 96.2124 and 92.251 and 83.6538 and 87.8328 and 80.7895
Normalized Luminescence Counts for WT hTA1 (hTA1; M = -5): 83.6538 and 87.8328 and 80.7895 and 79.6771 and 96.2124 and 92.251
Dose-response curves for asenapine vs endogenous trace amines (hTA1; M = -5.522): 74.87 and 93.5418 and 84.1725 and 79.0052 and 76.9861 and 71.9618
Normalized Luminescence Counts for WT hTA1 (hTA1; M = -5.522): 79.0052 and 76.9861 and 71.9618 and 74.87 and 93.5418 and 84.1725
Dose-response curves for asenapine vs endogenous trace amines (hTA1; M = -6): 68.5274 and 68.3939 and 69.9517 and 72.9948 and 71.8209 and 62.9463
Normalized Luminescence Counts for WT hTA1 (hTA1; M = -6): 72.9948 and 71.8209 and 62.9463 and 68.5274 and 68.3939 and 69.9517
Dose-response curves for asenapine vs endogenous trace amines (hTA1; M = -6.522): 47.5189 and 49.5663 and 40.1525 and 38.2946 and 48.7657 and 45.4788
Normalized Luminescence Counts for WT hTA1 (hTA1; M = -6.522): 38.2946 and 48.7657 and 45.4788 and 47.5189 and 49.5663 and 40.1525
Dose-response curves for asenapine vs endogenous trace amines (hTA1; M = -7): 27.8234 and 34.8114 and 20.9244 and 18.9489 and 23.9262 and 21.7193
Normalized Luminescence Counts for WT hTA1 (hTA1; M = -7): 18.9489 and 23.9262 and 21.7193 and 27.8234 and 34.8114 and 20.9244
Dose-response curves for asenapine vs endogenous trace amines (hTA1; M = -7.522): 9.085 and 11.3326 and 6.214 and 4.299 and 6.271 and 7.5856
Normalized Luminescence Counts for WT hTA1 (hTA1; M = -7.522): 4.299 and 6.271 and 7.5856 and 9.085 and 11.3326 and 6.214
Dose-response curves for asenapine vs endogenous trace amines (hTA1; M = -8): 5.413 and 6.147 and 6.2585 and 3.876 and 4.862 and 2.139
Normalized Luminescence Counts for WT hTA1 (hTA1; M = -8): 3.876 and 4.862 and 2.139 and 5.413 and 6.147 and 6.2585
Dose-response curves for asenapine vs endogenous trace amines (hTA1; M = -8.522): 0.6725 and 1.273 and 1.229 and 1.059 and 0.777 and -0.209
Normalized Luminescence Counts for WT hTA1 (hTA1; M = -8.522): 1.059 and 0.777 and -0.209 and 0.6725 and 1.273 and 1.229
Dose-response curves for asenapine vs endogenous trace amines (hTA1; M = -9): -0.2399 and 0.5835 and -0.9298 and -0.4438 and -0.06817 and 0.0727
Normalized Luminescence Counts for WT hTA1 (hTA1; M = -9): -0.4438 and -0.06817 and 0.0727 and -0.2399 and 0.5835 and -0.9298
Dose-response curves for asenapine vs endogenous trace amines (hTA1; M = -9.522): -1.597 and -0.5292 and -1.353 and -0.209 and -0.5377 and 0.777
Normalized Luminescence Counts for WT hTA1 (hTA1; M = -9.522): -0.209 and -0.5377 and 0.777 and -1.597 and -0.5292 and -1.353
Dose-response curves for asenapine vs endogenous trace amines (hTA1; M = -10): -0.6182 and -0.1064 and -0.8408 and -0.7725 and -0.5377 and -0.6786
Normalized Luminescence Counts for WT hTA1 (hTA1; M = -10): -0.7725 and -0.5377 and -0.6786 and -0.6182 and -0.1064 and -0.8408
Dose-response curves for asenapine vs endogenous trace amines (hTA1; M = -10.522): -0.9521 and -0.1509 and -1.197 and -0.8195 and -1.665 and -1.101
Normalized Luminescence Counts for WT hTA1 (hTA1; M = -10.522): -0.8195 and -1.665 and -1.101 and -0.9521 and -0.1509 and -1.197
Dose-response curves for asenapine vs endogenous trace amines (hTA1; M = -11): -0.9075 and -0.3289 and -0.7295 and -0.3969 and 0.2136 and 0.9649
Normalized Luminescence Counts for WT hTA1 (hTA1; M = -11): -0.3969 and 0.2136 and 0.9649 and -0.9075 and -0.3289 and -0.7295
Dose-response curves for asenapine vs endogenous trace amines (hTA1; M = -11.522): -0.863 and -0.01735 and -1.531 and -0.9603 and -0.5377 and -0.4908
Normalized Luminescence Counts for WT hTA1 (hTA1; M = -11.522): -0.9603 and -0.5377 and -0.4908 and -0.863 and -0.01735 and -1.531
Dose-response curves for asenapine vs endogenous trace amines (hTA1; M = -12): -1.108 and -0.6405 and -1.286 and -1.101 and -0.6786 and -1.477
Normalized Luminescence Counts for WT hTA1 (hTA1; M = -12): -1.101 and -0.6786 and -1.477 and -1.108 and -0.6405 and -1.286
Dose-response curves for asenapine vs endogenous trace amines (hTA1; M = -12.522): -1.575 and -1.241 and -2.02 and -0.5377 and -1.054 and -1.242
Normalized Luminescence Counts for WT hTA1 (hTA1; M = -12.522): -0.5377 and -1.054 and -1.242 and -1.575 and -1.241 and -2.02
Normalized Luminescence Counts (hTA1 C88S; Asenapine, M -5): 78.2534 and 81.5764 and 79.8011 and 111.871 and 108.238 and 123.304
Normalized Luminescence Counts (hTA1 C88S; Asenapine, M -5.522): 94.436 and 87.9948 and 83.989 and 130.463 and 114.596 and 122.075
Normalized Luminescence Counts (hTA1 C88S; Asenapine, M -6): 79.8011 and 74.9077 and 70.7881 and 118.656 and 108.719 and 100.545
Normalized Luminescence Counts (hTA1 C88S; Asenapine, M -6.522): 57.5416 and 54.7649 and 49.5528 and 65.7127 and 60.6375 and 65.5525
Normalized Luminescence Counts (hTA1 C88S; Asenapine, M -7): 23.993 and 22.8778 and 24.6531 and 32.3228 and 28.1557 and 35.9556
Normalized Luminescence Counts (hTA1 C88S; Asenapine, M -7.522): 10.9969 and 9.859 and 9.563 and 7.801 and 8.763 and 9.724
Normalized Luminescence Counts (hTA1 C88S; Asenapine, M -8): 6.65 and 6.24 and 5.148 and 4.382 and 5.237 and 6.305
